Test results taken from US20180312542A1, “ENDOSOMAL ESCAPE PEPTIDES” (priority 2015, published 2018).

Legend:
[1] = system: BSR.LNL.tdTomato cells; assay: ATP-dependent cell viability assay (CellTiterGlo) 48 h after treatment; format: cell-based, hamster
Protocol: FIGS. 3A-3B. Efficacy and toxicity of recombinant expression fusions of aurein 1.2 (“E”) and citropin 1.3 (“U”). (FIG. 3A) Cytosolic Cre delivery results in recombination and tdTomato expression. The percentage of tdTomato positive cells was determined by flow cytometry. Protein fusions were delivered at 125 nM, 250 nM, 500 nM, and 1 μM. (FIG. 3B) Toxicity of aurein 1.2 and citropin 1.3 as determined by CellTiterGlo (Promega) assay. Protein fusions were delivered at 125 nM, 250 nM, 500 nM, and 1 μM. […] Cells were treated with 250 nM protein for 4 hours in serum-free media. Cells were washed and supplanted with full DMEM and incubated for 48 hours. Error bars represent the standard deviation of three independent biological replicates.
Next, the toxicity of each fusion protein was evaluated at a range of concentrations (125 nM to 1 μM) using an ATP-dependent cell viability assay at 48 h after treatment. […] Applying 1 μM treatments decreased cell viability to 70% and 66%, respectively (FIG. 3B). In light of its activity and low cytotoxicity at 250 nM, the ability of aurein 1.2 to enhance cytosolic protein delivery was characterized in depth.
Uptake and delivery assays for Cre fusion proteins were performed as previously described. Briefly, proteins were diluted in serum-free DMEM and incubated on the cells in 48-well plates for 4 hours at 37° C. Following incubation, the cells were washed three times with PBS+20 U/mL heparin. The cells were incubated a further 48 hours in serum-containing media prior to trypsinization and analysis by flow cytometry. All flow cytometry were carried out on a BD Fortessa flow cytometer (Becton-Dickinson) using 530/30 nm and 610/20 nm filter sets. Toxicity for aurein 1.2 and citropin 1.3 validation assays was determined using CellTiterGlo assay (Promega) in 96-well plates following manufacturer protocol. Toxicity for alanine scan mutational analysis was determined with LIVE/DEAD fixable far-red dead cell stain (Life Technologies) with 635 nm laser and 670/30 nm filter.

[2] = system: cochlear hair cells and supporting cells of Cre reporter transgenic mice; assay: In vivo protein delivery of Cre recombinase into mouse neonatal cochleas; conditions: 0.4 μL of 50 μM, 5 days; for cochlear cells survived as compared to +36 GFP-Cre treatment: scala media
Protocol: FIGS. 6A-6C. In vivo protein delivery of Cre recombinase into mouse neonatal cochleas. 0.4 μL of 50 μM+36 GFP-Cre or aurein 1.2-+36 GFP-Cre were injected into the scala media. (FIG. 6A) Five days after injection, cochlea were harvested. Inner hair cells (IHC), outer hair cells (OHC) and supporting cells in the sensory epithelium (SE) were imaged for the presence of tdTomato, which is only expressed following Cre-mediated recombination. Hair cells were labeled with antibodies against the hair-cell marker Myo7a. (FIG. 6B) To evaluate cytotoxicity, the number of outer hair cells and inner hair cells were measured by counting DAPI-stained cells. (FIG. 6C) The percentage of tdTomato positive cells, reflecting successful delivery of functional Cre recombinase, was determined by fluorescence imaging.
To evaluate the ability of aurein 1.2 to increase the efficacy of cationic protein delivery in vivo, proteins were delivered to the inner ear of Cre reporter transgenic mice that express tdTomato upon Cre-mediated recombination. This animal model was chosen due to its confined injection volume, the presence of well-characterized cell types, and the existence of genetic deafness models that would facilitate future studies of protein delivery to treat hearing loss.
Anesthetized postnatal day 2 (P2) mice were injected with 0.4 μL of 50 μM+36 GFP-Cre or aurein 1.2-+36 GFP-Cre solutions in the scala media to access the cochlear cells. Five days after injection, the cochleas were harvested for immunolabeling of inner ear cell markers and imaging for tdTomato florescence (FIG. 6A). Both the hair cells (Myo7a+) and supporting cells (Myo7a−) were evaluated for td Tomato signal. The total number of hair cells and supporting cells (by DAPI labeling) in the sensory epithelium (SE) was used to determine the relative toxicity of aurein 1.2-+36 GFP-Cre to the baseline treatment of +36 GFP-Cre ([…]).
P1-2 Gt(ROSA)26Sor^tm14(CAG-tdTomato)Hze mice were used for aurein 1.2-+36-GFP-Cre and +36-GFP-Cre injection. The Rosa26-tdTomato mice were from the Jackson Laboratory. Animals were used under protocols approved by the Massachusetts Eye & Ear Infirmary IACUC committee. Mice were anesthetized by hypothermia on ice. Cochleostomies were performed by making an incision behind the ear to expose the cochlea. Glass micropipettes held by a micromanipulator were used to deliver the complex into the scala media, which allows access to inner ear hair cells. The total delivery volume for every injection was 0.4 μL per cochlea and the release was controlled by a micromanipulator at the speed of 69 nL/min.
5 days after injection, the mice were sacrificed and cochlea were harvested by standard protocols. See, e.g., Sage et al. Science 2005, 307, 1114. For immunohistochemistry, antibodies against hair-cell markers (Myo7a) and supporting cells (Sox2) were used following a previously described protocol. To quantify the number of tdTomato positive cells after aurein 1.2-+36-GFP-Cre and +36-GFP-Cre, we counted the total number of inner and outer hair cells in a region spanning 100 μm in the apex, middle, and base turn of the cochlea.

“aurein 1.2-+36 GFP-Cre: fusion protein of aurein 1.2, +36 GFP and Cre recombinase, SEQ ID NO: 77” was tested, and the viability ([1]; 250 nM recombinant fusion) was 87%, the viable cells ([1]; 1 μM treatment) was 70% and the “Cre-mediated recombination, inner hair cells (IHC)” value (shortened to “Cre-mediated recombination … (IHC)”) ([2]; apex) was 100%. The “Cre-mediated recombination, outer hair cells (OHC)” value (“Cre-mediated recombination … (OHC)” below) ([2]; apex) was 96%, the “cochlear cells survived as compared to +36 GFP-Cre treatment” value ([2]; apex) was 96% and the “Cre-mediated recombination … (IHC)” value ([2]; base) was 70%. For the same substance, the “Cre-mediated recombination … (OHC)” value ([2]; base) was 69%, the “cochlear cells survived as compared to +36 GFP-Cre treatment” value ([2]; base) was 66% and the “Cre-mediated recombination … (IHC)” value ([2]; middle) was 94%. For the same substance, the “Cre-mediated recombination … (OHC)” value ([2]; middle) was 91% and the “cochlear cells survived as compared to +36 GFP-Cre treatment” value ([2]; middle) was 92%.
